Measured values from ChEMBL document CHEMBL1255507, “Azole derivatives as histamine H3 receptor antagonists, part 2: C-C and C-S coupled heterocycles” (Bioorg Med Chem Lett, 2010).

molecular target: T1, Histamine H3 receptor (Homo sapiens, UniProt Q9Y5N1); experiment: Displacement of [125I]Iodoproxyfan from human histamine H3 receptor expressed in HEK293 cells; format: cell-based
T1 sequence (Q9Y5N1 whole entry): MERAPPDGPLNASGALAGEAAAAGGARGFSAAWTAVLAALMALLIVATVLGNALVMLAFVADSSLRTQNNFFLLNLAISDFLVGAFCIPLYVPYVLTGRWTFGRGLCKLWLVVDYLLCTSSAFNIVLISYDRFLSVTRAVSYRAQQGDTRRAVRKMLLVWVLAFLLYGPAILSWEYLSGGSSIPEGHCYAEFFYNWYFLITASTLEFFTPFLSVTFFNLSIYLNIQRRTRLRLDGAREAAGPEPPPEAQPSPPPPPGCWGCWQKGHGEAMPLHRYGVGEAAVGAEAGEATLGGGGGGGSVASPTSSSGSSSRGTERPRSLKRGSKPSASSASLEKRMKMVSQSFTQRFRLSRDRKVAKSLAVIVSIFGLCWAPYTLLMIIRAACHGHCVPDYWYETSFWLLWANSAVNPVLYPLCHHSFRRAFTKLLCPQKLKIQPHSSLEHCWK

SMILES	Ki [µM]
c1cncc(-c2noc(CCCCN3CCCCC3)n2)c1	0.11
CC(=O)c1sc(SCCCN2CCCCC2)nc1C	> 1
C1CCN(CCCOc2nc3c(s2)CN(CCCN2CCCCC2)CC3)CC1	0.02

The next lines start with the values.

Ki [µM]	SMILES
0.187	c1cc(-c2nnc(SCCCN3CCCCC3)o2)ccn1
0.063	c1ccc(-c2cnc(CCCCN3CCCCC3)o2)cc1
0.032	c1ccc(-c2nc(SCCCN3CCCCC3)oc2-c2ccccc2)cc1
0.0074	c1ccc(-c2nc(SCCCN3CCCCC3)sc2-c2ccccc2)cc1

molecular target: T1, Histamine H3 receptor; experiment: Displacement of [3H]Methylhistamine from human histamine H3 receptor expressed in HEK293 cells; format: cell-based

Ki [µM]	SMILES
0.018	c1cc(-c2nc(SCCCN3CCCCC3)nn2CCCN2CCCCC2)ccn1
